{"source": "patent US7645765B2", "about": "“Use of moxaverin for treating erectile dysfunction, forms of dementia or diseases associated to an arteriosclerotic occlusion” (Molecular and Clinical Drug Research, priority 2001, dated 2010)", "key": {"[1]": {"tested_on": "smooth muscle cells", "conditions": "more effective than papaverin; cited from earlier work"}, "[2]": {"experiment": "Solubility of moxaverin hydrochloride in undiluted PEG 200 / PEG 400 at 37° C., pH 7.4 adjustment and dilution with Tyrode's solution", "type": "physicochemical", "protocol": "Moxaverin hydrochloride was dissolved completely, as a pure substance, in increasing mass proportions (see Table 1), in 10 ml commercially available polyethylene glycol having an average molecular weight of 200 and 400, respectively (manufactured by Sigma, PEG 200 and 400, <1% H2O), while stirring constantly, at a temperature of 37° C.\nSubsequently, the dissolved moxaverin was converted to an aqueous solution, while stirring constantly, by adding 1×Tyrode's solution with a normal extracellular electrolyte composition.\nTo determine the pH dependence of the solution behavior of moxaverin hydrochloride, a pH of 7.4 was adjusted in another series of experiments, after complete dissolution in undiluted PEG, by adding NaOH."}, "[3]": {"tested_on": "patients having erectile dysfunction", "experiment": "Patient study: intracavernous injection of aqueous solutions of moxaverin", "type": "in vivo, human", "protocol": "Twenty patients having a completely clarified genesis of erectile dysfunction were given intracavernous injections (injection therapy of erectile tissue) of aqueous solutions of moxaverin. In this connection, 1 ml of an injection solution containing 1 to 10 mg moxaverin hydrochloride per ml end volume, in Tyrode's buffer, at a pH=7.4 and an end concentration of 2.5% PEG 400 (in the case of 1 mg moxaverin HCl/ml) up to 25% PEG 400 (in the case of 10 mg moxaverin HCl/ml) were administered per individual injection."}, "[4]": {"experiment": "Stability of pH-neutral aqueous PEG solutions of moxaverin", "type": "physicochemical"}, "[5]": {"conditions": "after oral administration; cited from earlier work"}, "[6]": {"conditions": "cited from earlier work"}, "[7]": {"experiment": "Solubility in water / aqueous solution", "type": "physicochemical", "protocol": "Also, this low concentration of moxaverin would be difficult to compensate by means of the administration of larger volumes. In addition, the stability of active substances in highly concentrated solutions is generally greater than in solutions having a low concentration. In the form of the free base, moxaverin is practically insoluble in water (<1 mg/ml)."}, "[8]": {"experiment": "Direct dissolving of moxaverin HCl in 5-10% diluted PEG", "type": "physicochemical", "conditions": "5-10% PEG 400 or PEG 200 in H2O or Tyrode's solution, 37° C.", "protocol": "In comparison, an attempt was made to dissolve moxaverin HCl in 5-10% PEG diluted with H2O and Tyrode's solution, respectively. (In other words, analogous to the series of experiments shown in the table, 15 to 40 mg moxaverin HCl were added to 10 ml 10% PEG 400, or 7.5 to 20 mg moxaverin HCl were added to 10 ml 5% PEG 400, and stirred at 37° C.) However, directly dissolving the pure substance in diluted PEG was not possible either in diluted PEG 400 or in diluted PEG 200."}, "[9]": {"experiment": "Activity of moxaverin HCl dissolved in pH-neutral PEG solution", "conditions": "pH-neutral diluted PEG solution"}, "[10]": {"conditions": "for pH: 26.6° C.", "protocol": "Moxaverin hydrochloride was dissolved completely, as a pure substance, in increasing mass proportions (see Table 1), […], respectively (manufactured by Sigma, PEG 200 and 400, <1% H2O), while stirring constantly, […]"}, "[11]": {"conditions": "150 mg in 10 ml PEG 200, 37° C."}, "[12]": {"conditions": "150 mg in 10 ml PEG 400, 37° C."}, "[13]": {"conditions": "200 mg in 10 ml PEG 200, 37° C."}, "[14]": {"conditions": "200 mg in 10 ml PEG 400, 37° C."}, "[15]": {"conditions": "250 mg in 10 ml PEG 200, 37° C."}, "[16]": {"conditions": "250 mg in 10 ml PEG 400, 37° C."}, "[17]": {"conditions": "300 mg in 10 ml PEG 200, 37° C."}, "[18]": {"conditions": "300 mg in 10 ml PEG 400, 37° C."}, "[19]": {"conditions": "350 mg in 10 ml PEG 200, 37° C."}, "[20]": {"conditions": "350 mg in 10 ml PEG 400, 37° C."}, "[21]": {"conditions": "400 mg in 10 ml PEG 200, 37° C."}, "[22]": {"conditions": "400 mg in 10 ml PEG 400, 37° C."}}, "note": "Where two headings read alike, the source gives them in different places.", "data": [{"molecule": "CCc1cc2cc(OC)c(OC)cc2c(Cc2ccccc2)n1", "note": "[moxaverin, 1-benzyl-3-ethyl-6,7-dimethoxyisoquinoline]", "values": [{"measurement": "effectiveness as musculotropic spasmolytic relative to parent substance papaverin", "setting": "[1]", "value": 2.5, "unit": "×"}, {"measurement": "Solubility at pH 7.4", "setting": "[2]; [11]", "value": "Yes"}, {"measurement": "pH", "setting": "[2]; [11]", "value": 3.05}, {"measurement": "Solubility at pH 7.4", "setting": "[2]; [12]", "value": "Yes"}, {"measurement": "pH", "setting": "[2]; [12]", "value": 2.53}, {"measurement": "Solubility at pH 7.4", "setting": "[2]; [13]", "value": "Yes"}, {"measurement": "pH", "setting": "[2]; [13]", "value": 3.06}, {"measurement": "Solubility at pH 7.4", "setting": "[2]; [14]", "value": "Yes"}, {"measurement": "pH", "setting": "[2]; [14]", "value": 2.33}, {"measurement": "Solubility at pH 7.4", "setting": "[2]; [15]", "value": "Yes"}, {"measurement": "pH", "setting": "[2]; [15]", "value": 2.97}, {"measurement": "Solubility at pH 7.4", "setting": "[2]; [16]", "value": "Yes"}, {"measurement": "pH", "setting": "[2]; [16]", "value": 2.27}, {"measurement": "Solubility at pH 7.4", "setting": "[2]; [17]", "value": "Yes"}, {"measurement": "pH", "setting": "[2]; [17]", "value": 2.95}, {"measurement": "Solubility at pH 7.4", "setting": "[2]; [18]", "value": "Yes"}, {"measurement": "pH", "setting": "[2]; [18]", "value": 2.30}, {"measurement": "Solubility at pH 7.4", "setting": "[2]; [19]", "value": "No"}, {"measurement": "pH", "setting": "[2]; [19]", "value": 2.87}, {"measurement": "Solubility at pH 7.4", "setting": "[2]; [20]", "value": "Yes"}, {"measurement": "pH", "setting": "[2]; [20]", "value": 2.22}, {"measurement": "Solubility at pH 7.4", "setting": "[2]; [21]", "value": "No"}, {"measurement": "pH", "setting": "[2]; [21]", "value": 2.75}, {"measurement": "Solubility at pH 7.4", "setting": "[2]; [22]", "value": "Yes"}, {"measurement": "pH", "setting": "[2]; [22]", "value": 2.12}, {"measurement": "solution behaviour after pH neutralization", "setting": "[2]; PEG 400, high concentrations, pH 7.4", "value": "remained in solution"}, {"measurement": "maximum moxaverin concentration in the finished aqueous medicinal solution", "setting": "[2]; PEG as solubilizer, upper limit 30% PEG", "value": "approximately 12 mg/ml"}, {"measurement": "behaviour on dilution with 1×Tyrode's solution", "setting": "[2]; dissolved in PEG, diluted as desired", "value": "without the dissolved moxaverin precipitating"}, {"measurement": "precipitation on dilution of pH-neutral solutions", "setting": "[2]; low PEG concentrations of 5% and less", "value": "did not precipitate"}, {"measurement": "Solubility", "setting": "[2]; undiluted polyethylene glycol (PEG), 37 °C, organic solvent or mixture, thermodynamic from solid, undiluted PEG, read-out: maximum solubility in undiluted PEG", "value": "~40", "unit": "mg/mL"}, {"measurement": "pain in connection with the injection", "setting": "[3]; intracavernous injection", "value": "No pain was observed"}, {"measurement": "side effects such as priapism", "setting": "[3]; intracavernous injection", "value": "not observed"}, {"measurement": "cases with sufficiently strong penile erection", "setting": "[3]; intracavernous, 1 to 10 mg moxaverin hydrochloride in 1 ml, 20 patients", "value": "more than 90%"}, {"measurement": "degree of erection E", "setting": "[3]; scale from 0 to 5, intracavernous injection", "value": "4-5"}, {"measurement": "time the solutions remained stable without precipitation", "setting": "[4]", "value": "more than six months"}, {"measurement": "toxicity relative to papaverin", "setting": "[5]", "value": "ten times less toxic"}, {"measurement": "solubility in water", "setting": "[6]; free base, water", "value": "< 1", "unit": "mg/mL"}]}, {"molecule": "CCc1cc2cc(OC)c(OC)cc2c(Cc2ccccc2)n1.Cl", "note": "[moxaverin hydrochloride]", "values": [{"measurement": "concentration at which moxaverin HCl precipitated after neutralization", "setting": "[2]; PEG 200, pH 7.4", "value": "≥ 35000", "unit": "µg/mL"}, {"measurement": "moxaverin concentration achieved in undiluted polyethylene glycol 400", "setting": "[2]; undiluted PEG 400, 37° C.", "value": "up to 40 mg/ml"}, {"measurement": "maximum brought into solution in H2O", "setting": "[7]", "value": "< 1", "unit": "mg/mL"}, {"measurement": "directly dissolving the pure substance in diluted PEG", "setting": "[8]", "value": "not possible"}, {"measurement": "activity of the dissolved moxaverin HCl", "setting": "[9]", "value": "active"}, {"measurement": "Solubility", "setting": "[10]", "value": "Dissolved"}, {"measurement": "maximum brought into solution in EtOH", "setting": "[10]", "value": "≤ 200", "unit": "mg/mL"}, {"measurement": "pH", "setting": "[10]; 10 mg/ml in ethanol 90%", "value": 3.49}, {"measurement": "pH", "setting": "[10]; 20 mg/ml in ethanol 90%", "value": 3.36}, {"measurement": "pH", "setting": "[10]; 30 mg/ml in ethanol 90%", "value": 3.30}, {"measurement": "pH", "setting": "[10]; 40 mg/ml in ethanol 90%", "value": 3.19}, {"measurement": "pH", "setting": "[10]; 50 mg/ml in ethanol 90%", "value": 3.13}, {"measurement": "pH", "setting": "[10]; 60 mg/ml in ethanol 90%", "value": 3.11}, {"measurement": "pH", "setting": "[10]; 100 mg/ml in ethanol 90%", "value": 3.00}, {"measurement": "pH", "setting": "[10]; 200 mg/ml in ethanol 90%", "value": 2.96}, {"measurement": "maximum concentration of moxaverin HCl in aqueous solution", "setting": "[6]; aqueous solutions having a physiological pH", "value": "≤ 1", "unit": "mg/mL"}]}]}
